In this test the target is T1, Nicotinamide N-methyltransferase (NNMT) (Homo sapiens, UniProt P40261).
T1 sequence (P40261 1-264): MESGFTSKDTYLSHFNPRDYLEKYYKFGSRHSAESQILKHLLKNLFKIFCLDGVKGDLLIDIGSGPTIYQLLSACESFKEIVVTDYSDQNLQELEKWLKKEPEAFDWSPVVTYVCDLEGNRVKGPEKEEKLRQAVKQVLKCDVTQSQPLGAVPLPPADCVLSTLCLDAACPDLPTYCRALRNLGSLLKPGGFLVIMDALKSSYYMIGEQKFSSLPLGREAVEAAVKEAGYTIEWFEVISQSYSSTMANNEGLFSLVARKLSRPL
The experiment in a line: in vitro enzyme activity assay with purified NNMT. The class given is biochemical.

Turning to `C=C(C)[C@@]12O[C@@]3(/C=C/C=C/CCCCC)O[C@@H]1[C@@H]1[C@@H]4O[C@]4(CO)[C@@H](O)[C@]4(O)C(=O)C(C)=C[C@H]4[C@@]1(O3)[C@H](C)[C@H]2OC(C)=O` [YD, yuanhuadine], the IC50 (as a rule, the concentration needed to halve the response being measured) came out at 400 nM.

For the origin of these results see article PMC5992482 (Molecular Therapy. Nucleic Acids, 2018).
